Test results from patent EP0367189A2, “Sugar phosphates and sulfonates of epipodophyllotoxin glucosides” (Bristol-Myers Squibb Company, priority 1988, dated 1990).
Values after ≈ are worked out from the molar mass of the structure shown.

Experiments:
[1] = test system: P388 leukemia; assay: Antitumor activity against murine transplantable P388 leukemia (survival); assay type: in vivo, CDF₁ mice; details: maximum % T/C only, at the dose giving the maximum effect (dose column of Table I); single intraperitoneal dose on day 1; observed 45 days; 10⁶ P388 cells ip; % T/C of 125 or greater = significant
Experimental: Representative compounds of the present invention were evalnated for anti tumor activity against murine transplantable P388 leukemia. Five-week old female CDF₁ mice were inoculated intraperitoneally with 0.4 ml of diluted ascitic fluid containing 10⁶ lymphocytic leukemia P388 cells. […] The percent increase of median survival time (MST) of treated animals over that of untreated control animals was determined and reported as % T/C. Compounds showing % T/C values of 125 or greater are considered to have significant antitumor activity. Table I presents the results of the in vivo evaluation; only the maximum % T/C and the dose giving the maximum effects are reported.

[2] = test system: B16 melanoma cells; assay: In vitro cytotoxicity against B16 melanoma cells (neutral red staining); assay type: cell-based; details: 72 hours at 37°C, colorimetric at 540 nm, IC₅₀ higher than 100 µg/ml = lack of cytotoxic activity
Experimental: Cytotoxicity of compounds of the present invention was studied using B16 melanoma cells. B16 melanoma cells were grown to the logarithmic phase in the enriched Eagle minimum essential medium supplemented with fetal calf serum (10%) and kanamycin (60 mcg/ml). The tumor cells were harvested and implanted into wells of the 96-well microtiter plate with test materials at the inoculum size of 3.0 x 10⁴ cells/ml. They were incubated at 37°C in humidified atmosphere of 5% CO₂ and 95% air for 72 hours. The cytotoxic activity against the above cell line was determined colorimetrically at 540 nm after staining viable cells with neutral red and is reported in terms of the concentration that inhibits 50% of cell growth (IC₅₀). IC₅₀ values of higher than 100 µg/ml are generally considered as indicating lack of cytotoxic activity.

[3] = Seligman et al, Cancer Chemotherapy Reports Part I, 1975; cited from earlier work
[4] = molecular target: T1, prostatic acid phosphatase (Homo sapiens, UniProt P15309); details: Seligman et al, Cancer Chemotherapy Reports Part I, 1975; cited from earlier work
T1 sequence (P15309 33-386): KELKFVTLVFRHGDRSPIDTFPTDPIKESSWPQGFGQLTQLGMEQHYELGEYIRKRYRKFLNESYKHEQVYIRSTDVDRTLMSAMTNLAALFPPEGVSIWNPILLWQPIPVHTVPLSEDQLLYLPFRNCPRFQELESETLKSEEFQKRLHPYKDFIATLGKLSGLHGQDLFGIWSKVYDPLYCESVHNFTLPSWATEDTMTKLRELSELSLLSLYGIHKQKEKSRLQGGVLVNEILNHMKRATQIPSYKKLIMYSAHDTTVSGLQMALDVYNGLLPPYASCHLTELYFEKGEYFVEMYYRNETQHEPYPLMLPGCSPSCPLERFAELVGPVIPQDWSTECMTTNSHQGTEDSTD

Molecule | %T/C of MST [1] [%] | IC50 ([2]; Mus musculus) [µg/mL] | IC₅₀ [2] [µg/mL] | toxicity over the parent podophyllotoxin [3] | hydrolysis by prostatic acid phosphatase [4]
COc1cc([C@@H]2c3cc4c(cc3[C@@H](O[C@@H]3O[C@@H]5CO[C@@H](C)O[C@H]5[C@H](O)[C@H]3O)[C@H]3COC(=O)[C@H]23)OCO4)cc(OC)c1O [Etoposide, etoposide, reference compound] | 250 | 0.21 (≈ 0.357 µM) | – | – | –
disodium etoposide 2˝ -phosphate [Compound XII] | 120 | – | 20 | – | –
disodium etoposide 3˝-phosphate [Compound XI] | 185 | – | 2.2 | – | –
etoposide 2˝,3˝-ditosylate [Compound XIX] | 100 | – | 30 | – | –
etoposide 2˝-mesylate [Compound XXIV] | 130 | – | 29 | – | –
etoposide 2˝-tosylate [Compound XVIII] | 115 | – | 5.4 | – | –
etoposide 3˝-diphenyl phosphate [XXVI] | 130 | – | 8.0 | – | –
etoposide 3˝-mesylate [Compound XXIII] | 175 | – | 0.32 | – | –
etoposide 3˝-tosylate [Compound XVII] | 195 | – | 0.07 | – | –
podophyllotoxin phosphate disodium salt | – | – | – | did not show reduced toxicity | not hydrolyzed
sodium bis(etoposide-3˝-)phosphate [Compound XIII] | 125 | – | 37 | – | –
